target: T1, PTP1B (Homo sapiens, UniProt P18031); assay: Kinetic constants of pY peptides against PTP1B; type: biochemical; conditions: pH 7.4, peptide as substrate
T1 sequence (P18031 1-435): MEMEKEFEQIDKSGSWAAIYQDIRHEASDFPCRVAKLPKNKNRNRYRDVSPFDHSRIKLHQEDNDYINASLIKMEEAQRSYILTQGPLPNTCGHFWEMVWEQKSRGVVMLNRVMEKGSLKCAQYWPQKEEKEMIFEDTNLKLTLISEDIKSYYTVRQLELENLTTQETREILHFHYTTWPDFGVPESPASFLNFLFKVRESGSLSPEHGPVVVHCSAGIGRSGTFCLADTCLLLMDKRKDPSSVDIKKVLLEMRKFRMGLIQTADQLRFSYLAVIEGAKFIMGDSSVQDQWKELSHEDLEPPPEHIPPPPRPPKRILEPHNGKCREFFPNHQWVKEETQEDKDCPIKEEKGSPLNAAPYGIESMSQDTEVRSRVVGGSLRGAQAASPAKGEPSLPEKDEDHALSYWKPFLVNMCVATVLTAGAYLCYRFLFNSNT

Molecule	Km	kcat	kcat/KM
DDTF2YDpYAA-NH2 [Peptide 6]	13 ± 3 µM	36 ± 2 s⁻¹	2.7e+06 M⁻¹ s⁻¹
DDTYDpYAA-NH2 [Peptide 7]	14 ± 2 µM	33 ± 1 s⁻¹	2.3e+06 M⁻¹ s⁻¹
DNLF2YpYWD-NH2 [Peptide 4]	3.6 ± 0.4 µM	36 ± 1 s⁻¹	1e+07 M⁻¹ s⁻¹
REYEFpYAA-NH2 [Peptide 9]	6 ± 0.7 µM	33 ± 1 s⁻¹	5.4e+06 M⁻¹ s⁻¹

system: not given; assay: not given; conditions: cited from earlier work

Molecule	side chain pKa
N[C@@H](Cc1cc(F)c(O)c(F)c1)C(=O)O [Compound 1, 3,5-difluorotyrosine]	7.2

Reference: article PMC2650251 (Organic letters, 2008)
